Results taken from patent US4866069A, “Substance 4181-2 and its derivatives having anti-leukemia activity” (Taiho Pharmaceutical Company, Limited, priority 1986, dated 1989).
In brackets after ≈: the same amount, converted by molar mass.

Columns and labels:
[1] = system: Aspergillus niger IFO 6341; assay: Antimicrobial spectrum (MIC), two-fold serial dilution; type: cell-based; conditions: IFO6341, Sabouraud's agar medium
Description: (§1) The antibacterial and antifungal spectra of Substance 4181-2 were investigated. Using nutrient agar medium for gram-positive and gram-negative bacteria and Sabouraud's agar medium for fungi, the minimal inhibitory concentration (MIC) was determined by a two-fold serial dilution method.

[2] = system: Bacillus subtilis ATCC 6633; assay: as above; type: cell-based; conditions: ATCC6633, nutrient agar medium
Description: as §1

[3] = system: Candida albicans IFO 1061; assay: as above; type: cell-based; conditions: IFO1061, Sabouraud's agar medium
Description: as §1

[4] = system: Escherichia coli B IFO 13168; assay: as above; type: cell-based; conditions: IFO13168, nutrient agar medium
Description: as §1

[5] = system: Klebsiella pneumoniae ATCC 10031; assay: as above; type: cell-based; conditions: ATCC10031, nutrient agar medium
Description: as §1

[6] = system: Micrococcus flavus ATCC 10240; assay: as above; type: cell-based; conditions: ATCC10240, nutrient agar medium
Description: as §1

[7] = system: Penicillium notatum IFO 4640; assay: as above; type: cell-based; conditions: Penicillium chrysogenum, IFO4640, Sabouraud's agar medium
Description: as §1

[8] = system: Proteus vulgalis IFO 3045; assay: as above; type: cell-based; conditions: nutrient agar medium
Description: as §1

[9] = system: Pseudomonus fluorescens IFO 12180; assay: as above; type: cell-based; conditions: nutrient agar medium
Description: as §1

[10] = system: Saccharomyces delbrueckii IAM 12236; assay: as above; type: cell-based; conditions: Torulaspora delbrueckii, IAM12236, Sabouraud's agar medium
Description: as §1

[11] = system: Staphylococcus aureus 209P; assay: as above; type: cell-based; conditions: nutrient agar medium
Description: as §1

[12] = system: Trichophyton mentagrophytes IFO 5466; assay: as above; type: cell-based; conditions: IFO5466, Sabouraud's agar medium
Description: as §1

leukemia P388 cells = assay: Antitumor activity: life span-prolonging effect in mouse leukemia; type: in vivo, BDF1 mice; conditions: for % Increase in survival time / Mean survival time: 3 mg/kg intraperitoneally, day after i.p. injection of 1×10^6 P388 cells, BDF1 mice; for % Increase in survival time: ((D/D0)-1)×100 vs untreated; for Mean survival time: untreated control 9.3 ± 0.8 days
Description: The antitumor activity of Substance 4181-2 and its derivatives was evaluated in terms of the increase in life span. One ×10^6 of leukemia P388 cells were intraperitoneally injected to BDF1 mice. Each group consisted of 6 mice. On the following day, each of Compounds 1-4, suspended in 0.2% solution of Tween 80 in physiological saline, was administered intraperitoneally and the survival time in days was determined. The percent increase in survival time was calculated by means of the following formula.
Percent increase in survival time=((D/D0)-1)×100 wherein D0 stands for the mean survival time (days) in the untreated group and D stands for the mean survival time (days) in the treated group.

[13] = Acute toxicity study (up-and-down method); set-up: species or system mice of ddY strain; conditions: mouse, in vivo, ip, intraperitoneal, male ddY mice, 25 g
Description: Male mice of ddY strain (body weight 25 g) were used. Each of Compounds 1-4 was suspended in 0.2% solution of Tween 80 in physiological saline and administered intraperitoneally to the animals. The LD50 values (mg/kg) were determined by the up-and-down method.

[14] = system: microorganisms including gram-positive bacteria, gram-negative bacteria and fungi; assay: Antimicrobial activity (summary statement); type: cell-based
Description: as §1

[15] = literature statement; cited from earlier work

SMILES | % Increase in survival time (leukemia P388 cells) | Mean survival time (leukemia P388 cells) | LD50 [13] | antimicrobial activity (in words) [15] | further results
COc1cc2oc3c(c(=O)c2cc1O)C(=O)c1c(ccc2cc4c(c(O)c12)C(=O)N1CCOC1(C)C4)C3=O (stereo not shown) [Compound 1, Substance 4181-2] | 94% | 18.0 ± 1.4 days | ≥ 40 mg/kg | – | MIC [1]: 3.13 µg/mL (≈ 6.1 µM); MIC [2]: 0.2 µg/mL (≈ 0.39 µM); MIC [3]: 0.39 µg/mL (≈ 0.76 µM); MIC [4]: 1.56 µg/mL (≈ 3.04 µM); MIC [5]: 3.13 µg/mL (≈ 6.1 µM); MIC [6]: 0.2 µg/mL (≈ 0.39 µM); MIC [7]: 1.56 µg/mL (≈ 3.04 µM); MIC [8]: 0.39 µg/mL (≈ 0.76 µM); MIC [9]: 0.2 µg/mL (≈ 0.39 µM); MIC [10]: 1.56 µg/mL (≈ 3.04 µM); MIC [11]: 0.2 µg/mL (≈ 0.39 µM); MIC [12]: 0.78 µg/mL (≈ 1.52 µM); antitumor activity (in words) (leukemia P388 cells; summary statement): excellent antitumor activity; antimicrobial spectrum (in words) [14]: broad antimicrobial spectrum
COc1cc2oc3c(c(=O)c2cc1OC(C)=O)C(=O)c1c(ccc2cc4c(c(OC(C)=O)c12)C(=O)N1CCOC1(C)C4)C3=O (stereo not shown) [Compound 2, diacetyl derivative of Substance 4181-2] | 59% | 14.8 ± 0.8 days | ≥ 40 mg/kg | – | –
COc1cc2oc3c(c(=O)c2cc1OC)C(=O)c1c(ccc2cc4c(c(O)c12)C(=O)N1CCOC1(C)C4)C3=O (stereo not shown) [Compound 3, monomethyl derivative of Substance 4181-2] | 63% | 15.2 ± 1.7 days | ≥ 40 mg/kg | – | –
COc1cc2oc3c(c(=O)c2cc1OC)C(=O)c1c(ccc2cc4c(c(OC(C)=O)c12)C(=O)N1CCOC1(C)C4)C3=O (stereo not shown) [Compound 4, monomethyl monoacetyl derivative of Substance 4181-2] | 53% | 14.2 ± 0.8 days | ≥ 40 mg/kg | – | –
COc1cc2oc3c(O)c4ccc5cc6c(c(O)c5c4c(O)c3c(=O)c2cc1OC)C(=O)N1CCOC1(C)C6 (stereo not shown) [cervinomycin A1] | – | – | – | have antimicrobial activity | –
COc1cc2oc3c(c(=O)c2cc1OC)C(=O)c1c(ccc2cc4c(c(O)c12)C(=O)N1CCOC1(C)C4)C3=O (stereo not shown) [cervinomycin A2] | – | – | – | have antimicrobial activity | –
